Experimental data from article PMC10060639, “Prediction and bioactivity of small-molecule antimicrobial peptides from Protaetia brevitarsis Lewis larvae” (Frontiers in Microbiology, 2023).
Where “and” joins values, the source holds several entries; their conditions need not be identical. Identical values can stand only once. Like-named read-outs stand apart in the source and are kept apart here. Ends that are not written are not given here.

Tests used:
S. aureus CMCC(B) 26003 [1] = assay: agar punch method, inhibition circle; assay type: cell-based, Staphylococcus aureus; conditions: 6 mm hole, 55 μL of 1 mg/mL, NA, 37°C, 16–18 h, mean ± SD, three replicates, + control given per plate group
Method: (§1) Staphylococcus aureus CMCC(B) 26003, B. thuringiensis, E. coli, and P. aeruginosa CMCC(B)10104 were cultured in NA medium and C. albicans CMCC(F) 98001 was cultured in SDA medium. They were incubated in a constant-temperature (bacteria: 37°C; fungi: 28°C) incubator for 16–20 h. Thereafter, single colonies were picked and incubated in 50 mL MHB at 160 rpm/min at the optimal growth temperature (bacteria: 37°C; fungi: 28°C). Microbial suspensions of 1 × 10^6 CFU/mL were then prepared ([Chen et al., 2016]).
(§2) 100 μL of 1 × 10^6 CFU/mL microbial suspension (E. coli, P. aeruginosa CMCC(B)10104, B. thuringiensis, S. aureus CMCC(B) 26003, or C. albicans CMCC(F) 98001) was evenly applied to dishes containing 20 mL NA (bacteria) or SDA (fungi). After the microbial solution solidified, six holes per dish were punched with a sterile pipette tip of 6 mm in diameter, with each hole spaced >20 mm apart and > 10 mm apart from the edge of the dish. […] Next, 55 μL of 1 mg/mL control/treatment was added to each hole and incubated in a constant-temperature (bacteria: 37°C; fungi: 28°C) incubator for 16–18 h ([Chen et al., 2016]; [Gong et al., 2022]), with three replicates for each treatment group. The diameter of the inhibition circle was measured using ImageJ software (National Institutes of Health, United States) in order to preliminarily determine whether the candidate peptides had inhibitory activity.

[2] = system: mouse RAW 264.7 macrophages; assay: cytotoxicity, MTT assay; assay type: cell-based; conditions: at 256 μg/mL, 24 h incubation, absorbance 570 nm, n = 3
Method: Followed the removing of the MTT, dimethyl sulfoxide (DMSO) (150 μL/well) was added and the absorbance was measured at 570 nm. Untreated cells were used as a control. […] The cytotoxicity detection was repeated in triplicate.

[3] = system: C. albicans CMCC(F) 98001; assay: agar punch method, inhibition circle; assay type: cell-based, Candida albicans; conditions: 6 mm hole, 55 μL of 1 mg/mL, SDA, 28°C, 16–18 h, mean ± SD, three replicates, + control given per plate group
Method: as §1, §2

E. coli [4] = assay: dynamic antimicrobial analysis (OD600 growth over 10 h); assay type: cell-based, Escherichia coli; conditions: 1/4× MIC, OD600 every hour for 10 h, 37°C, n = 3
Method: (§3) Therefore, the follow-up experiments involved these two bacteria, along with the three AMPs with the best antimicrobial effects (FD10, FD12, and FD15). The dynamic antimicrobial effects were analyzed by measuring the effects of the AMPs on bacterial growth over 10 h. First, 100 μL microbial solution (1.0 × 10^6 CFU/mL) was added to the wells of a 96-well culture plate, and then 100 μL AMP (at 1× and 1/4× MIC) was added and the mixtures were cultured at 37°C ([Mishra et al., 2013]; [Memariani et al., 2016]). 100 μL MHB with 100 μL microbial solution was used as the control group. The optical density at 600 nm (OD600) was measured every hour for 10 h using a microplate reader ([Hou et al., 2007]). The experiment was conducted in triplicate.

B. thuringiensis [5] = assay: agar punch method, inhibition circle; assay type: cell-based, Bacillus thuringiensis; conditions: 6 mm hole, 55 μL of 1 mg/mL, NA, 37°C (Fig. S3C: 30°C), 16–18 h, mean ± SD, three replicates, + control given per plate group
Method: as §1, §2

E. coli [6] = assay: agar punch method, inhibition circle; assay type: cell-based, Escherichia coli; conditions: 6 mm hole, 55 μL of 1 mg/mL, NA, 37°C, 16–18 h, mean ± SD, three replicates, + control given per plate group
Method: as §1, §2

[7] = system: P. aeruginosa CMCC(B)10104; assay: agar punch method, inhibition circle; assay type: cell-based, Pseudomonas aeruginosa; conditions: 6 mm hole, 55 μL of 1 mg/mL, NA, 37°C, 16–18 h, mean ± SD, three replicates, + control given per plate group
Method: as §1, §2

S. aureus CMCC(B) 26003 [8] = assay: dynamic antimicrobial analysis (OD600 growth over 10 h); assay type: cell-based, Staphylococcus aureus; conditions: 1/4× MIC, OD600 every hour for 10 h, 37°C, n = 3
Method: as §3

S. aureus CMCC(B) 26003 [9] = assay type: cell-based, Staphylococcus aureus
Method: as §1
(§4) The MIC values of five candidate peptides (FD4, FD10, FD12, FD14, and FD15), which were selected based on physicochemical properties and antimicrobial effects (determined by the agar punch method), were evaluated using a micro-broth dilution method ([Zhou and Zhou, 2018]). Serial two-fold dilutions of the candidate peptides were prepared in 96-well plates containing the same microbial inoculum (E. coli, P. aeruginosa CMCC(B)10104, B. thuringiensis, S. aureus CMCC(B) 26003, or C. albicans CMCC(F) 98001). The plates were incubated (bacteria: 37°C; fungi: 28°C) for 16–18 h. Ampicillin was used as the positive control. The MIC was defined as the lowest peptide concentration where no visible growth occurred ([Diao et al., 2014]). The experiment was conducted in triplicate.

B. thuringiensis [10] = assay type: cell-based, Bacillus thuringiensis
Method: as §1, §4

E. coli [11] = assay type: cell-based, Escherichia coli
Method: as §1, §4

S. aureus CMCC(B) 26003 [12] = assay: time-kill assay; assay type: cell-based, Staphylococcus aureus; conditions: 2× MIC, MHB with 10^6 CFU/mL, 37°C, 100 rpm, colony counting, n = 3
Method: (§5) The kill-time curve assay method was used to investigate the bactericidal effects of the […] according to the technique described by [Joray et al. (2011)]. A time–kill assay was used to examine the rate at which three AMPs (FD10, FD12, and FD15) killed two microbes (S. aureus CMCC(B) 26003 and E. coli) in vitro over time, based on the number of viable bacteria left at various time points after AMP exposure. Briefly, AMP at 2× MIC was added to MHB containing 10^6 CFU/mL S. aureus CMCC(B) 26003 or E. coli and the mixture was then incubated at 37°C and 100 rpm. At various time points, a sample was taken, serially diluted, and plated on MHA for colony counting ([Flamm et al., 2019]).

E. coli [13] = assay: time-kill assay; assay type: cell-based, Escherichia coli; conditions: 2× MIC, MHB with 10^6 CFU/mL, 37°C, 100 rpm, colony counting, n = 3
Method: as §5

S. aureus CMCC(B) 26003 [14] = assay type: cell-based, Staphylococcus aureus; remark: listed apart in the source
Method: (§6) E. coli and S. aureus CMCC(B) 26003 (1 × 10^6 CFU/mL) were incubated in MHB with various final physiological concentrations of serum salts (150 mM NaCl, 4.5 mM KCl, 1 mM MgCl2, and […]). 50 μL of these E. coli or S. aureus CMCC(B) 26003 suspensions and 50 μL of AMP (serially diluted two-fold to a final concentration of 256 μg/mL) were added to a 96-well plate and incubated at 37°C for 16–18 h ([Chou et al., 2016]). The MIC values were then determined. The experiment was conducted in triplicate.

[15] = system: P. aeruginosa CMCC(B)10104; assay type: cell-based, Pseudomonas aeruginosa; conditions: micro-broth dilution, two-fold dilutions, 37°C, 16–18 h, no visible growth, triplicate
Method: as §1, §4

E. coli [16] = assay type: cell-based, Escherichia coli; remark: listed apart in the source
Method: as §6

[17] = system: C. albicans CMCC(F) 98001; assay type: cell-based, Candida albicans; conditions: micro-broth dilution, two-fold dilutions, 28°C, 16–18 h, no visible growth, triplicate
Method: as §1, §4

[18] = micro-broth dilution, two-fold dilutions, 37°C, 16–18 h, no visible growth, triplicate

Molecule: CC1(C)S[C@@H]2[C@H](NC(=O)[C@H](N)c3ccccc3)C(=O)N2[C@H]1C(=O)O [ampicillin, reference compound]
- Inhibition circle diameter (mm) S. aureus CMCC(B) 26003 (S. aureus CMCC(B) 26003 [1]): 19.98 mm
- Inhibition circle diameter (mm) S. aureus CMCC(B) 26003 (S. aureus CMCC(B) 26003 [1]; listed as +): 14.35 ± 0.49 mm and 15.58 ± 0.58 mm and 16.02 ± 0.34 mm and 19.98 ± 0.42 mm
- survival rate of mouse RAW 264.7 macrophages [2]: 84.90%
- Inhibition circle diameter (mm) C. albicans CMCC(F) 98001 [3]: 16.16 ± 0.51 mm and 17.74 ± 0.47 mm and 17.80 ± 0.25 mm and 19.69 ± 0.53 mm
- time after which E. coli growth began (E. coli [4]): > 1 h
- Inhibition circle diameter (mm) B. thuringiensis (B. thuringiensis [5]): 17.95 ± 0.36 mm and 13.99 ± 0.61 mm and 17.47 ± 0.19 mm and 15.97 ± 0.49 mm
- Inhibition circle diameter (mm) E. coli (E. coli [6]): 29.37 mm
- Inhibition circle diameter (mm) E. coli (E. coli [6]; listed as +): 27.03 ± 0.47 mm and 27.84 ± 0.30 mm and 30.50 ± 0.21 mm and 29.37 ± 0.31 mm
- Inhibition circle diameter (mm) P. aeruginosa CMCC(B)10104 ([7]; listed as +): 15.10 ± 0.43 mm and 16.52 ± 0.55 mm and 16.99 ± 0.39 mm and 14.48 ± 0.29 mm
- time after which S. aureus CMCC(B) 26003 growth began (S. aureus CMCC(B) 26003 [8]): around 2 h

Molecule: STLHLVLRLR-NH2 [FD15, FD16 with -NH2 added to the terminal]
- Inhibition circle diameter (mm) S. aureus CMCC(B) 26003 (S. aureus CMCC(B) 26003 [1]): 10.02 ± 0.22 mm
- MIC (μg/mL) S. aureus CMCC(B) 26003 (S. aureus CMCC(B) 26003 [9]; [18]): 16 µg/mL
- MIC (μg/mL) B. thuringiensis (B. thuringiensis [10]; [18]): 128 µg/mL
- Inhibition circle diameter (mm) C. albicans CMCC(F) 98001 [3]: 0 mm
- Inhibition circle diameter (mm) B. thuringiensis (B. thuringiensis [5]): 9.15 ± 0.44 mm
- Inhibition circle diameter (mm) E. coli (E. coli [6]): 11.18 ± 0.38 mm
- Inhibition circle diameter (mm) P. aeruginosa CMCC(B)10104 [7]: 0 mm
- MIC (μg/mL) E. coli (E. coli [11]; [18]): 32 µg/mL
- time within which almost all S. aureus cells were killed (S. aureus CMCC(B) 26003 [12]): ≤ 1 h
- time within which almost all E. coli cells were killed (E. coli [13]): ≤ 1 h
- MIC, MgCl2 (S. aureus CMCC(B) 26003 [14]; S. aureus CMCC(B) 26003, MHB with 1 mM MgCl2, 37°C, 16–18 h, triplicate): 64 µg/mL
- MIC, FeCl3 (S. aureus CMCC(B) 26003 [14]; S. aureus CMCC(B) 26003, MHB with 4 mM FeCl3, 37°C, 16–18 h, triplicate): 32 µg/mL
- MIC, KCl (S. aureus CMCC(B) 26003 [14]; S. aureus CMCC(B) 26003, MHB with 4.5 mM KCl, 37°C, 16–18 h, triplicate): 32 µg/mL
- MIC, NaCl (S. aureus CMCC(B) 26003 [14]; S. aureus CMCC(B) 26003, MHB with 150 mM NaCl, 37°C, 16–18 h, triplicate): 64 µg/mL
- MIC, Control (S. aureus CMCC(B) 26003 [14]; S. aureus CMCC(B) 26003, MHB, absence of physiological salts, 37°C, 16–18 h, triplicate): 16 µg/mL
- MIC (μg/mL) P. aeruginosa CMCC(B)10104 [15]: - (−Indicated that the MIC was greater than 256 μg/mL.)
- MIC, MgCl2 (E. coli [16]; E. coli, MHB with 1 mM MgCl2, 37°C, 16–18 h, triplicate): 64 µg/mL
- MIC, FeCl3 (E. coli [16]; E. coli, MHB with 4 mM FeCl3, 37°C, 16–18 h, triplicate): 16 µg/mL
- MIC, KCl (E. coli [16]; E. coli, MHB with 4.5 mM KCl, 37°C, 16–18 h, triplicate): 64 µg/mL
- MIC, NaCl (E. coli [16]; E. coli, MHB with 150 mM NaCl, 37°C, 16–18 h, triplicate): 64 µg/mL
- MIC, Control (E. coli [16]; E. coli, MHB, absence of physiological salts, 37°C, 16–18 h, triplicate): 32 µg/mL
- MIC (μg/mL) C. albicans CMCC(F) 98001 [17]: - (−Indicated that the MIC was greater than 256 μg/mL.)

Molecule: KIYVLLRRQA [FD12]
- MIC (μg/mL) S. aureus CMCC(B) 26003 (S. aureus CMCC(B) 26003 [9]; CMCC(B) 26003): 16 µg/mL
- MIC (μg/mL) B. thuringiensis (B. thuringiensis [10]): 128 µg/mL
- MIC (μg/mL) E. coli (E. coli [11]): 32 µg/mL
- MIC, Control (S. aureus CMCC(B) 26003 [14]; CMCC(B) 26003): 16 µg/mL
- MIC, FeCl3 (S. aureus CMCC(B) 26003 [14]; CMCC(B) 26003): 32 µg/mL
- MIC, KCl (S. aureus CMCC(B) 26003 [14]; CMCC(B) 26003): 8 µg/mL
- MIC, MgCl2 (S. aureus CMCC(B) 26003 [14]; CMCC(B) 26003): 32 µg/mL
- MIC, NaCl (S. aureus CMCC(B) 26003 [14]; CMCC(B) 26003): 32 µg/mL
- MIC, Control (E. coli [16]): 32 µg/mL
- MIC, FeCl3 (E. coli [16]): 32 µg/mL
- MIC, KCl (E. coli [16]): 16 µg/mL
- MIC, MgCl2 (E. coli [16]): 64 µg/mL
- MIC, NaCl (E. coli [16]): 64 µg/mL
